# Measured values as given in patent US20240010639A1, “TRIAZINE DIONE DERIVATIVE, PREPARATION METHOD THEREFOR AND APPLICATION THEREOF IN MEDICINE” (Jiangsu Hengrui Pharmaceuticals Co., Ltd., priority 2020, published 2024).
# Like-named read-outs stand apart in the source and are kept apart here.
# Test: Toxicokinetic evaluation of 14-day repeated intragastric administration to SD rats
# Type: in vivo
# Experimental: With SD rats as test animals, the plasma concentrations of the test compounds and the concentrations of the original forms of the compounds in the administration solutions were measured by LC/MS/MS at different time points after intragastric administration. The toxicokinetic performance of the compound disclosed herein was studied in SD rats and its toxicokinetic profile was evaluated.
# 24 SD rats, an equal number of males and females, evenly divided into 6 groups of 4, an equal number of males and females in each group, provided by Vital River Laboratory Animal Technology Co., Ltd.
# A certain amount of the compound of Example 16 was measured out, and 15% PEG400 and 85% (10% TPGS+1% HPMC K100LV) were added to prepare a pale yellow homogenous suspension.
# A certain amount of compound MYK-461 was measured out, and 0.5% MC was added to prepare a colorless clear solution.
# The compound of Example 16 was intragastrically administered at doses of 5 mg/kg, 15 mg/kg and 30 mg/kg, at a volume of 10 mL/kg.
# Compound MYK-461 was administered at doses of 0.5 mg/kg, 1.5 mg/kg and 3 mg/kg, at a volume of 10 mL/kg.
# 0.2-mL blood samples were collected from the orbit 0.5 h, 1.0 h, 2.0 h, 4.0 h, 8.0 h and 24.0 h after administration on day 1, and before administration and 0.5 h, 1.0 h, 2.0 h, 4.0 h, 8.0 hi, 24.0 h after administration on day 7 and day 14, placed into EDTA-K2 anticoagulation tubes, and centrifuged at 10,000 rpm for 1 min (4° C.), and plasma was isolated within 1 h and stored at −20° C. before analysis. The blood collection to centrifugation process was performed under ice bath conditions. Two hours after administration, feeding was resumed.
# Determination of plasma concentrations in SD rats after intragastric administration of different concentrations of test compounds: 20 μL of SD rat plasma at each time point post-dose was mixed with 50 μL of an internal standard solution (internal standard for the compound of Example 16: 100 ng/mL verapamil; internal standard for compound MYK-461: 100 ng(mL camptothecin) and 200 μL of acetonitrile; the mixture was vortexed for 5 min and centrifuged at 3700 rpm for 10 min, and 1 μL of the supernatant was taken for LC/MS/MS analysis.
smiles,measurement,setting,value
"Cc1ccc(F)c([C@H](C)Nc2nc(=O)n(C3CCOCC3)c(=O)[nH]2)c1 [Example 16, (S)-6-((1-(2-Fluoro-5-methylphenyl)ethyl)amino)-3-(tetrahydro-2H-pyran-4-yl)-1,3,5-triazine-2,4(1H,3H)-dione]",accumulation after 14 days of repeated intragastric administration (in words),,did not show significant accumulation
same,Vd/F at 1 day,"both sexes, SD, rat, plasma, po, 5 mg/kg, repeated intragastric 5 mg/kg, Day 1, read-out: Apparent volume of distribution Vz/F",1.27 L/kg
same,AUC,"both sexes, SD, rat, plasma, po, 5 mg/kg, repeated intragastric 5 mg/kg, Day 1, read-out: Area under curve AUC",30000 ng·h/mL
same,CL/F at 1 day,"both sexes, SD, rat, plasma, po, 5 mg/kg, repeated intragastric 5 mg/kg, Day 1, read-out: Clearance CL/F",3.06 mL/min/kg
same,half-life at 1 day,"both sexes, SD, rat, plasma, po, 5 mg/kg, repeated intragastric 5 mg/kg, Day 1, read-out: Half-life T1/2 (converted)",4.8 h
same,Cmax at 1 day,"both sexes, SD, rat, plasma, po, 5 mg/kg, repeated intragastric 5 mg/kg, Day 1, read-out: Plasma concentration Cmax",5740 ng/mL
same,MRT at 1 day,"both sexes, SD, rat, plasma, po, 5 mg/kg, repeated intragastric 5 mg/kg, Day 1, read-out: Residence time MRT",5 h
same,Vd/F at 7 day,"both sexes, SD, rat, plasma, po, 5 mg/kg, repeated intragastric 5 mg/kg, Day 7, read-out: Apparent volume of distribution Vz/F",1.28 L/kg
same,AUC at 7 day,"both sexes, SD, rat, plasma, po, 5 mg/kg, repeated intragastric 5 mg/kg, Day 7, read-out: Area under curve AUC",28100 ng·h/mL
same,CL/F at 7 day,"both sexes, SD, rat, plasma, po, 5 mg/kg, repeated intragastric 5 mg/kg, Day 7, read-out: Clearance CL/F",2.99 mL/min/kg
same,half-life at 7 day,"both sexes, SD, rat, plasma, po, 5 mg/kg, repeated intragastric 5 mg/kg, Day 7, read-out: Half-life T1/2 (converted)",4.9 h
same,Cmax at 7 day,"both sexes, SD, rat, plasma, po, 5 mg/kg, repeated intragastric 5 mg/kg, Day 7, read-out: Plasma concentration Cmax",4470 ng/mL
same,MRT at 7 day,"both sexes, SD, rat, plasma, po, 5 mg/kg, repeated intragastric 5 mg/kg, Day 7, read-out: Residence time MRT",6 h
same,Vd/F at 14 day,"both sexes, SD, rat, plasma, po, 5 mg/kg, repeated intragastric 5 mg/kg, Day 14, read-out: Apparent volume of distribution Vz/F",1.24 L/kg
same,AUC at 14 day,"both sexes, SD, rat, plasma, po, 5 mg/kg, repeated intragastric 5 mg/kg, Day 14, read-out: Area under curve AUC",29800 ng·h/mL
same,CL/F at 14 day,"both sexes, SD, rat, plasma, po, 5 mg/kg, repeated intragastric 5 mg/kg, Day 14, read-out: Clearance CL/F",2.8 mL/min/kg
same,half-life at 14 day,"both sexes, SD, rat, plasma, po, 5 mg/kg, repeated intragastric 5 mg/kg, Day 14, read-out: Half-life T1/2 (converted)",5.1 h
same,Cmax at 14 day,"both sexes, SD, rat, plasma, po, 5 mg/kg, repeated intragastric 5 mg/kg, Day 14, read-out: Plasma concentration Cmax",4860 ng/mL
same,MRT at 14 day,"both sexes, SD, rat, plasma, po, 5 mg/kg, repeated intragastric 5 mg/kg, Day 14, read-out: Residence time MRT",6.2 h
same,Vd/F,"both sexes, SD, rat, plasma, po, 15 mg/kg, repeated intragastric 15 mg/kg, Day 1, read-out: Apparent volume of distribution Vz/F",1.37 L/kg
same,AUC at 1 day,"both sexes, SD, rat, plasma, po, 15 mg/kg, repeated intragastric 15 mg/kg, Day 1, read-out: Area under curve AUC",80400 ng·h/mL
same,CL/F,"both sexes, SD, rat, plasma, po, 15 mg/kg, repeated intragastric 15 mg/kg, Day 1, read-out: Clearance CL/F",3.08 mL/min/kg
same,half-life at 1 day,"both sexes, SD, rat, plasma, po, 15 mg/kg, repeated intragastric 15 mg/kg, Day 1, read-out: Half-life T1/2 (converted)",5.1 h
same,Cmax at 1 day,"both sexes, SD, rat, plasma, po, 15 mg/kg, repeated intragastric 15 mg/kg, Day 1, read-out: Plasma concentration Cmax",16100 ng/mL
same,MRT at 1 day,"both sexes, SD, rat, plasma, po, 15 mg/kg, repeated intragastric 15 mg/kg, Day 1, read-out: Residence time MRT",5.4 h
same,Vd/F,"both sexes, SD, rat, plasma, po, 15 mg/kg, repeated intragastric 15 mg/kg, Day 7, read-out: Apparent volume of distribution Vz/F",2.13 L/kg
same,AUC,"both sexes, SD, rat, plasma, po, 15 mg/kg, repeated intragastric 15 mg/kg, Day 7, read-out: Area under curve AUC",70900 ng·h/mL
same,CL/F,"both sexes, SD, rat, plasma, po, 15 mg/kg, repeated intragastric 15 mg/kg, Day 7, read-out: Clearance CL/F",3.58 mL/min/kg
same,half-life,"both sexes, SD, rat, plasma, po, 15 mg/kg, repeated intragastric 15 mg/kg, Day 7, read-out: Half-life T1/2 (converted)",6.5 h
same,Cmax,"both sexes, SD, rat, plasma, po, 15 mg/kg, repeated intragastric 15 mg/kg, Day 7, read-out: Plasma concentration Cmax",16800 ng/mL
same,MRT,"both sexes, SD, rat, plasma, po, 15 mg/kg, repeated intragastric 15 mg/kg, Day 7, read-out: Residence time MRT",6.7 h
same,Vd/F,"both sexes, SD, rat, plasma, po, 15 mg/kg, repeated intragastric 15 mg/kg, Day 14, read-out: Apparent volume of distribution Vz/F",1.45 L/kg
same,AUC,"both sexes, SD, rat, plasma, po, 15 mg/kg, repeated intragastric 15 mg/kg, Day 14, read-out: Area under curve AUC",82900 ng·h/mL
same,CL/F,"both sexes, SD, rat, plasma, po, 15 mg/kg, repeated intragastric 15 mg/kg, Day 14, read-out: Clearance CL/F",2.98 mL/min/kg
same,half-life,"both sexes, SD, rat, plasma, po, 15 mg/kg, repeated intragastric 15 mg/kg, Day 14, read-out: Half-life T1/2 (converted)",5.6 h
same,Cmax,"both sexes, SD, rat, plasma, po, 15 mg/kg, repeated intragastric 15 mg/kg, Day 14, read-out: Plasma concentration Cmax",14100 ng/mL
same,MRT,"both sexes, SD, rat, plasma, po, 15 mg/kg, repeated intragastric 15 mg/kg, Day 14, read-out: Residence time MRT",6.4 h
same,Vd/F,"both sexes, SD, rat, plasma, po, 30 mg/kg, repeated intragastric 30 mg/kg, Day 1, read-out: Apparent volume of distribution Vz/F",2.26 L/kg
same,AUC,"both sexes, SD, rat, plasma, po, 30 mg/kg, repeated intragastric 30 mg/kg, Day 1, read-out: Area under curve AUC",105000 ng·h/mL
same,CL/F,"both sexes, SD, rat, plasma, po, 30 mg/kg, repeated intragastric 30 mg/kg, Day 1, read-out: Clearance CL/F",4.72 mL/min/kg
same,half-life,"both sexes, SD, rat, plasma, po, 30 mg/kg, repeated intragastric 30 mg/kg, Day 1, read-out: Half-life T1/2 (converted)",5.6 h
same,Cmax,"both sexes, SD, rat, plasma, po, 30 mg/kg, repeated intragastric 30 mg/kg, Day 1, read-out: Plasma concentration Cmax",18700 ng/mL
same,MRT,"both sexes, SD, rat, plasma, po, 30 mg/kg, repeated intragastric 30 mg/kg, Day 1, read-out: Residence time MRT",6.4 h
same,Vd/F,"both sexes, SD, rat, plasma, po, 30 mg/kg, repeated intragastric 30 mg/kg, Day 7, read-out: Apparent volume of distribution Vz/F",2.15 L/kg
same,AUC,"both sexes, SD, rat, plasma, po, 30 mg/kg, repeated intragastric 30 mg/kg, Day 7, read-out: Area under curve AUC",121000 ng·h/mL
same,CL/F,"both sexes, SD, rat, plasma, po, 30 mg/kg, repeated intragastric 30 mg/kg, Day 7, read-out: Clearance CL/F",4.14 mL/min/kg
same,half-life,"both sexes, SD, rat, plasma, po, 30 mg/kg, repeated intragastric 30 mg/kg, Day 7, read-out: Half-life T1/2 (converted)",5.9 h
same,Cmax,"both sexes, SD, rat, plasma, po, 30 mg/kg, repeated intragastric 30 mg/kg, Day 7, read-out: Plasma concentration Cmax",21600 ng/mL
same,MRT,"both sexes, SD, rat, plasma, po, 30 mg/kg, repeated intragastric 30 mg/kg, Day 7, read-out: Residence time MRT",6.7 h
same,Vd/F,"both sexes, SD, rat, plasma, po, 30 mg/kg, repeated intragastric 30 mg/kg, Day 14, read-out: Apparent volume of distribution Vz/F",1.69 L/kg
same,AUC,"both sexes, SD, rat, plasma, po, 30 mg/kg, repeated intragastric 30 mg/kg, Day 14, read-out: Area under curve AUC",139000 ng·h/mL
same,CL/F,"both sexes, SD, rat, plasma, po, 30 mg/kg, repeated intragastric 30 mg/kg, Day 14, read-out: Clearance CL/F",3.52 mL/min/kg
same,half-life,"both sexes, SD, rat, plasma, po, 30 mg/kg, repeated intragastric 30 mg/kg, Day 14, read-out: Half-life T1/2 (converted)",5.6 h
same,Cmax,"both sexes, SD, rat, plasma, po, 30 mg/kg, repeated intragastric 30 mg/kg, Day 14, read-out: Plasma concentration Cmax",20000 ng/mL
same,MRT,"both sexes, SD, rat, plasma, po, 30 mg/kg, repeated intragastric 30 mg/kg, Day 14, read-out: Residence time MRT",6.9 h
